Where “and” joins values, the source holds several entries; their conditions need not be identical. Equal entries are not always repeated. Inconclusive results and toxic doses are left out. Cut-off read from the data, not from the text of the source: active = T/C of 150% or more; inactive = T/C below 125%.
System: L1210 leukemia ip in BDF1 mice, survival T/C
Test: NCI In Vivo Anticancer Drug Screen. Data for tumor model L1210 Leukemia (intraperitoneal) in B6D2F1 (BDF1) mice
Conditions: endpoint: mean survival time, higher = longer survival
Procedure, shortened: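 Each compound was tested against a transplantable tumor grown in mice. The endpoint was survival, with treated animals benchmarked against vehicle controls as a simple ratio.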

[1] = dose: 100.0 mg/kg/injection, schedule: Q01DX001 (ip), vehicle: other
[2] = dose: 200.0 mg/kg/injection, schedule: Q01DX001 (ip), vehicle: other
[3] = dose: 100.0 mg/kg/injection, schedule: Q01DX009 (ip), vehicle: Klucel (hydroxypropylcellulose) (HPC)
[4] = dose: 100.0 mg/kg/injection, schedule: Q04DX003 (ip), vehicle: Klucel (hydroxypropylcellulose) (HPC)
[5] = dose: 200.0 mg/kg/injection, schedule: Q01DX009 (ip), vehicle: Klucel (hydroxypropylcellulose) (HPC)
[6] = dose: 200.0 mg/kg/injection, schedule: Q04DX003 (ip), vehicle: Klucel (hydroxypropylcellulose) (HPC)
[7] = dose: 400.0 mg/kg/injection, schedule: Q01DX009 (ip), vehicle: Klucel (hydroxypropylcellulose) (HPC)
[8] = dose: 400.0 mg/kg/injection, schedule: Q04DX003 (ip), vehicle: Klucel (hydroxypropylcellulose) (HPC)
[9] = dose: 100.0 mg/kg/injection, schedule: Q04DX002 (ip), vehicle: Klucel (hydroxypropylcellulose) (HPC)
[10] = dose: 200.0 mg/kg/injection, schedule: Q04DX002 (ip), vehicle: Klucel (hydroxypropylcellulose) (HPC)
[11] = dose: 100.0 mg/kg/injection, schedule: Q04DX002 (ip), vehicle: saline with Tween-80
[12] = dose: 200.0 mg/kg/injection, schedule: Q04DX002 (ip), vehicle: saline with Tween-80
[13] = dose: 100.0 mg/kg/injection, schedule: Q01DX009 (ip), vehicle: saline with Tween-80

Measured: T/C

[O-]c1on[n+](-c2ccccc2)c1-c1ccccc1
inactive: dose: 75.0 mg/kg/injection, schedule: Q01DX009 (ip), vehicle: Klucel (hydroxypropylcellulose) (HPC) 93 % of control | dose: 75.0 mg/kg/injection, schedule: Q04DX003 (ip), vehicle: Klucel (hydroxypropylcellulose) (HPC) 109 % of control | dose: 150.0 mg/kg/injection, schedule: Q01DX009 (ip), vehicle: Klucel (hydroxypropylcellulose) (HPC) 97 % of control | dose: 150.0 mg/kg/injection, schedule: Q04DX003 (ip), vehicle: Klucel (hydroxypropylcellulose) (HPC) 105 % of control | dose: 300.0 mg/kg/injection, schedule: Q01DX009 (ip), vehicle: Klucel (hydroxypropylcellulose) (HPC) 95 % of control | dose: 300.0 mg/kg/injection, schedule: Q04DX003 (ip), vehicle: Klucel (hydroxypropylcellulose) (HPC) 107 % of control

Cc1ccc(C(=O)OCC(=O)c2ccc(-c3ccccc3)cc2)cc1
inactive: [1] 89 % of control | [2] 90 % of control

COc1cccc(/C=C/c2cnc3ccccc3n2)c1OC
inactive: dose: 50.0 mg/kg/injection, schedule: Q01DX009 (ip), vehicle: Klucel (hydroxypropylcellulose) (HPC) 104 % of control | [3] 92 % of control

c1ccc(N2CCNCC2)cc1 (tested in a mixture with another compound)
inactive: dose: 5.0 mg/kg/injection, schedule: Q01DX001 (ip), vehicle: saline 105 % of control and 101 % of control and 97 % of control | dose: 10.0 mg/kg/injection, schedule: Q01DX001 (ip), vehicle: saline 105 % of control and 97 % of control | dose: 20.0 mg/kg/injection, schedule: Q01DX001 (ip), vehicle: saline 105 % of control and 94 % of control and 95 % of control | dose: 40.0 mg/kg/injection, schedule: Q01DX001 (ip), vehicle: saline 102 % of control and 100 % of control | dose: 80.0 mg/kg/injection, schedule: Q01DX001 (ip), vehicle: saline 100 % of control | dose: 100.0 mg/kg/injection, schedule: Q01DX001 (ip), vehicle: saline 98 % of control | dose: 200.0 mg/kg/injection, schedule: Q01DX001 (ip), vehicle: saline 96 % of control

O=C(COc1ccc(Cl)cc1Cl)Nc1cc(C(F)(F)F)ccc1Cl
inactive: dose: 50.0 mg/kg/injection, schedule: Q01DX001 (ip), vehicle: other 96 % of control | [1] 107 % of control | dose: 100.0 mg/kg/injection, schedule: Q04DX002 (ip), vehicle: gum acacia 118 % of control | [2] 89 % of control | dose: 200.0 mg/kg/injection, schedule: Q04DX002 (ip), vehicle: gum acacia 91 % of control | dose: 400.0 mg/kg/injection, schedule: Q01DX001 (ip), vehicle: other 94 % of control | dose: 400.0 mg/kg/injection, schedule: Q04DX002 (ip), vehicle: gum acacia 103 % of control

O=C(CBr)CC(=O)Nc1ccccc1
inactive: dose: 25.0 mg/kg/injection, schedule: Q01DX009 (ip), vehicle: saline with Tween-80 97 % of control | dose: 50.0 mg/kg/injection, schedule: Q01DX009 (ip), vehicle: saline with Tween-80 91 % of control

C=C(C)C1(CCCCC)C(=O)NC(=O)NC1=O
inactive: dose: 75.0 mg/kg/injection, schedule: Q01DX001 (ip), vehicle: saline 101 % of control | dose: 150.0 mg/kg/injection, schedule: Q01DX001 (ip), vehicle: saline 98 % of control

C=CC[P+](Cc1cccc(C)c1)(c1ccccc1)c1ccccc1
inactive: dose: 6.25 mg/kg/injection, schedule: Q01DX009 (ip), vehicle: saline with Tween-80 107 % of control | dose: 12.5 mg/kg/injection, schedule: Q01DX009 (ip), vehicle: saline with Tween-80 115 % of control

COc1c([N+](=O)[O-])cc(C(=O)O)cc1[N+](=O)[O-]
inactive: [3] 104 % of control | [4] 99 % of control | [5] 98 % of control | [6] 97 % of control | [7] 98 % of control | [8] 97 % of control

Fc1ccc(NC2(c3nnnn3C3CCCCC3)CCNCC2)cc1
inactive: dose: 6.25 mg/kg/injection, schedule: Q01DX001 (ip), vehicle: saline with Tween-80 102 % of control | dose: 12.5 mg/kg/injection, schedule: Q01DX001 (ip), vehicle: saline with Tween-80 100 % of control | dose: 25.0 mg/kg/injection, schedule: Q01DX001 (ip), vehicle: saline with Tween-80 98 % of control

Cc1cccc(Cl)c1OC(=O)Nc1ccccc1
inactive: dose: 50.0 mg/kg/injection, schedule: Q04DX002 (ip), vehicle: Klucel (hydroxypropylcellulose) (HPC) 98 % of control | [9] 98 % of control | [10] 102 % of control

COc1c2c(c3c(c1O)c(=O)c1ccccc1n3C)OCO2
inactive: dose: 50.0 mg/kg/injection, schedule: Q01DX001 (ip), vehicle: carboxymethylcellulose (CMC) 104 % of control | dose: 100.0 mg/kg/injection, schedule: Q01DX001 (ip), vehicle: carboxymethylcellulose (CMC) 90 % of control | dose: 200.0 mg/kg/injection, schedule: Q01DX001 (ip), vehicle: carboxymethylcellulose (CMC) 90 % of control

O=C(/C=C/C(=O)Oc1ccc(Cl)cc1)Oc1ccc(Cl)cc1
inactive: dose: 100.0 mg/kg/injection, schedule: Q01DX001 (ip), vehicle: Klucel (hydroxypropylcellulose) (HPC) 96 % of control | [3] 102 % of control | [4] 97 % of control | dose: 200.0 mg/kg/injection, schedule: Q01DX001 (ip), vehicle: Klucel (hydroxypropylcellulose) (HPC) 101 % of control | [5] 102 % of control | [6] 108 % of control | dose: 400.0 mg/kg/injection, schedule: Q01DX001 (ip), vehicle: Klucel (hydroxypropylcellulose) (HPC) 99 % of control | [7] 100 % of control | [8] 107 % of control

CSc1nc(Cl)cc(N2CC2C)n1 (stereo not given)
inactive: dose: 25.0 mg/kg/injection, schedule: Q01DX Z (ip), vehicle: methylcellulose (MC) 96 % of control

CC(=O)[O][Pb]([O]C(C)=O)([c]1ccccc1)[c]1ccccc1
inactive: [9] 98 % of control | [11] 102 % of control | [10] 102 % of control | [12] 102 % of control | dose: 400.0 mg/kg/injection, schedule: Q04DX002 (ip), vehicle: Klucel (hydroxypropylcellulose) (HPC) 105 % of control

O=C(c1ccccc1)c1ccc2ccc(F)cc2c1C(=O)O
inactive: [13] 113 % of control | dose: 100.0 mg/kg/injection, schedule: Q04DX003 (ip), vehicle: other 95 % of control | dose: 200.0 mg/kg/injection, schedule: Q01DX009 (ip), vehicle: saline with Tween-80 113 % of control | dose: 200.0 mg/kg/injection, schedule: Q04DX003 (ip), vehicle: other 103 % of control | dose: 400.0 mg/kg/injection, schedule: Q01DX009 (ip), vehicle: saline with Tween-80 107 % of control | dose: 400.0 mg/kg/injection, schedule: Q04DX003 (ip), vehicle: other 101 % of control

CCC1(c2ccccc2)C(=O)N(CBr)C(=O)N(CBr)C1=O
inactive: [13] 90 % of control | [11] 92 % of control | [12] 100 % of control

CC(C)CCCC(C)C1CCC2C3=CC=C4CC(OC(=O)c5cc([N+](=O)[O-])cc([N+](=O)[O-])c5)CCC4(C)C3CCC21C (stereo not given)
inactive: [1] 88 % of control | [2] 98 % of control

CCN=C(NCC)Nc1ccc(NC(=O)Nc2ccc(NC(=O)Nc3ccc(NC(=NCC)NCC)cc3)cc2)cc1
inactive: dose: 1.0 mg/kg/injection, schedule: Q01DX Z (ip), vehicle: carboxymethylcellulose (CMC) 97 % of control | dose: 2.0 mg/kg/injection, schedule: Q01DX Z (ip), vehicle: carboxymethylcellulose (CMC) 96 % of control | dose: 4.1 mg/kg/injection, schedule: Q01DX Z (ip), vehicle: carboxymethylcellulose (CMC) 102 % of control | dose: 8.3 mg/kg/injection, schedule: Q01DX Z (ip), vehicle: carboxymethylcellulose (CMC) 111 % of control

From PubChem BioAssay AID248 (DTP/NCI, 2004)
